Source: US11479553B2, “5-5 fused rings as C5a inhibitors” (CHEMOCENTRYX, INC., priority 2017, dated 2022)
pIC50: −log10 of the molar value.

Target: C5aR (Homo sapiens (Human), UniProt P21730)
Assay: Chemotaxis assay (inhibition of C5aR mediated migration toward C5a)
Format: cell-based
Details: inhibition in the chemotaxis assay (Example 14 B.3); U937 or neutrophil cells, C5a as chemoattractant
Method: U937 cells are a monocytic cell line which express C5aR, and are available from ATCC (VA). These cells were cultured as a suspension in RPMI-1640 medium supplemented with 2 mM L-glutamine, 1.5 g/L sodium bicarbonate, 4.5 g/L glucose, 10 mM HEPES, 1 mM sodium pyruvate, and 10% FBS. Cells were grown under 5% CO2/95% air, 100% humidity at 37° C. and subcultured twice weekly at 1:6 (cells were cultured at a density range of 1×10^5 to 2×10^6 cells/mL) and harvested at 1×10^6 cells/mL. Prior to assay, cells are treated overnight with 0.5 mM of cyclic AMP (Sigma, OH) and washed once prior to use. cAMP treated U937 cells can be used in C5aR ligand binding and functional assays.
Optionally, human or murine neutrophils can be used to assay for compound activity. Neutrophils may be isolated from fresh human blood using density separation and centrifigation. Briefly, whole blood is incubated with equal parts 3% dextran and allowed to separate for 45 minutes. After separation, the top layer is layered on top of 15 mls of Ficoll (15 mls of Ficoll for every 30 mls of blood suspension) and centrifuged for 30 minutes at 400×g with no brake. The pellet at the bottom of the tube is then isolated and resuspended into PharmLyse RBC Lysis Buffer (BD Biosciences, San Jose, Calif.) after which the sample is again centrifuged for 10 minutes at 400×g with brake. The remaining cell pellet is resuspended as appropriate and consists of isolated neutrophils.
Optionally, compounds may be further assayed for their ability to inhibit chemotaxis in cells. Chemotaxis assays are performed using 5 μm pore polycarbonate, polyvinylpyrrolidone-coated filters in 96-well chemotaxis chambers (Neuroprobe; Gaithersburg, Md.) using chemotaxis buffer (Hank's balanced salt solution (HBSS) and 1% FBS). C5aR ligands (i.e., C5a, R&D Systems; Minneapolis, Minn.) are use to evaluate compound mediated inhibition of C5aR mediated migration. Other chemokines (i.e., SDF-1α; R&D Systems; Minneapolis, Minn.) are used as specificity controls. The lower chamber is loaded with 29 μl of chemokine (i.e., 0.03 nM C5a) and varying amounts of compound; the top chamber contains 100,000 U937 or neutrophil cells in 20 μl. The chambers are incubated 1.5 hours at 37° C., and the number of cells in the lower chamber quantified either by direct cell counts in five high powered fields per well or by the CyQuant assay (Molecular Probes), a fluorescent dye method that measures nucleic acid content and microscopic observation.

Chain of C5aR (P21730 whole entry): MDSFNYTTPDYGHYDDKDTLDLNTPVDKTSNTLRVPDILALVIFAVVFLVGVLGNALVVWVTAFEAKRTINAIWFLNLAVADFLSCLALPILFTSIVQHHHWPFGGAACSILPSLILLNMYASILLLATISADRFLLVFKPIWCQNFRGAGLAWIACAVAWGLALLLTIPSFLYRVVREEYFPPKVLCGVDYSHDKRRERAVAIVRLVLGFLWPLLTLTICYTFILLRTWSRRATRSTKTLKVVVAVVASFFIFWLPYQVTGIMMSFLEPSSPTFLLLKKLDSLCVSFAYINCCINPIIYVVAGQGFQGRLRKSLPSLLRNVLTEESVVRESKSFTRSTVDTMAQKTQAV

CCc1cccc(CC)c1-n1nc2c(c1-c1ccc(F)c3[nH]ccc13)CN(CC(C)(C)C(F)(F)F)C2(C)C [Compound 1.032]
pIC50: > 8.30

Cc1cccc(C)c1-n1nc2c(c1-c1ccc3[nH]ccc3c1)CN(CC(C)(C)C)C2 [Compound 1.051]
pIC50: ≤ 6.30

CCc1cccc(CC)c1-n1nc2c(c1-c1ccc(F)c3[nH]ccc13)CN(CC(C)(C)C)C2(C)C [Compound 1.009]
pIC50: 6.30 to 7.30

CCc1cccc(CC)c1-n1nc2c(c1-c1ccc(F)c3[nH]ccc13)CN(C(=O)C(C)(C)C(F)(F)F)C2(C)C [Compound 1.033]
pIC50: 7.30 to 8.30
